Results from US7550582B2, “Polyamide nucleic acid derivatives and agents, and processes for preparing them” (sanofi-aventis Deutschland GmbH, priority 2000, dated 2009).

Legend:
[1] = system: complementary DNA; experiment: Determining the melting temperatures (complementary DNA); format: binding; conditions: for Tm (DNA): 140 mM KCl, 10 mM sodium dihydrogen phosphate, 0.1 mM EDTA (pH 7.4), oligomer 0.5 to 1 OD260 per ml; for degree of binding towards complementary DNA and RNA compared with the uncharged PNA (reference substance): melting temperature experiment
Description: (§1) The melting temperatures were determined using an HP 8452A diode-array spectrophotometer, an HP 89090A Peltier element and HP Temperature Control Software Rev. B5.1 (from Hewlett Packard). Measurements were taken in 0.5° C./min steps in 140 mM KCl, 10 mM sodium dihydrogen phosphate, 0.1 mM EDTA (pH 7.4) as the buffer. The oligomer concentration was from 0.5 to 1 OD260 per ml.

[2] = system: complementary RNA; experiment: Determining the melting temperatures (complementary RNA); format: binding; conditions: 140 mM KCl, 10 mM sodium dihydrogen phosphate, 0.1 mM EDTA (pH 7.4); oligomer 0.5 to 1 OD260 per ml
Description: as §1

[3] = system: COS cells; experiment: Determining cell uptake after fluorescence labeling; format: cell-based; conditions: PNA solution 10 μM, 37° C., examined after 2, 4 and 16 hours
Description: COS cells were allowed to grow to confluence in Dulbecco's MEM, which was supplemented with 10% FCS, in 5 cm Petri dishes. The cells were washed twice with serum-free DMEM. An area of approx. 1 cm^2 was scratched out in the middle of the Petri dish using a sterile needle. The PNA solution (10 μM) under investigation was applied in this area. The dish was incubated at 37° C. under a CO2 atmosphere. After 2, 4 and 16 hours, the cells were examined by fluorescence microscopy. For this, the cells were washed four times with serum-free DMEM, covered with a cover slip, and evaluated under the fluorescence microscope or by phase contrast. PNA-5 and PNA-6 were examined by fluorescence microscopy.

[4] = system: REH cells (human pre-B leukemia cells, DSM ACC 22); experiment: Inhibiting cell proliferation; format: cell-based; conditions: 10 μM, after >4 days of incubation
Description: The sequence of PNA-6 is directed against the translation start of the Ha-ras mRNA. REH cells (human pre-B leukemia cells, DSM ACC 22) or A549 tumor cells were cultured, at 37° C. and under 5% CO2, in OptiMEM (Gibco BRL) containing 10% fetal calf serum (FCS, GIBCO-BRL). The cell density for the assay was approx. 1×10^6/ml. The PNA-6 (10 μM) was incubated with the cells in 24-well plates. After incubating at 37° C. and under 5% CO2 for 96 hours, the cell density was determined. Mean values for the cell density were determined from 3 individual wells at a given PNA concentration. […] After >4 days of incubation, the inhibition brought about by PNA-6 was greater than that brought about by a corresponding phosphorothioate oligonucleotide.

Row | Substance | Tm (DNA) [1] [°C] | Tm (RNA) [2] [°C] | degree of binding towards complementary DNA and RNA compared with the uncharged PNA (reference substance) [1] | cell uptake by fluorescence microscopy, compared with the PNA with no hexadecyl radical [3] | inhibition of proliferation compared with a corresponding phosphorothioate oligonucleotide [4]
1 | Ac-HN-tat tcc gtc at-hex [Reference, reference compound] | 41.9 | 56.6 | – | – | –
2 | C16-p-t(oeg) at tcc gtc at-aminohexyl-p-fluorescein [PNA-6] | 44.1 | 56.9 | equally good or better degree of binding | taken up more efficiently | greater
3 | p-t(oeg) at tcc gtc at-aminohexyl-p-fluorescein [PNA-5] | 41.8 | 56.9 | equally good or better degree of binding | – | –
